From patent US20240197869A1, “HYPERACTIVATORS OF MAMMALIAN DENDRITIC CELLS” (Corner Therapeutics, Inc., priority 2021, published 2024) come the findings set out here.

Where two headings read alike, the source gives them in different places.

For orientation: viability means a read-out of living cells in per cent, often relative to untreated cells.

Data set [1] can be described thus: PAMP screen: viability of human moDCs with PRR agonist and 22:0 Lyso PC. In kind it is cell-based. The following applies: human, human monocyte-derived dendritic cells (moDCs), No PAMP, 20 μM 22:0 Lyso PC alone, human moDCs, read-out: Relative Viability (%) ± SD. The procedure: Pathogen-Associated Molecular Pattern (PAMP) Screen. Innate immune signaling pathway agonists were purchased from Invivogen. Lyophilized stocks were reconstituted and stored according to manufacturer's instructions and at recommended concentrations. […] Innate immune signaling agonists were diluted in R10 media to the manufacturer's recommended working concentration and then added onto cells. 22:0 Lyso PC was then reconstituted from a lyophilized stock in R10 and then further diluted. The lipid was added onto cells at a final concentration of 20 μM. Cells were incubated for 2 days, then cultures were collected for endpoint analyses.
Quantification of Cell Viability.

Another data set deals with non-human primate PBMCs. Kind of data set: Cytokine secretion by non-human primate PBMCs (LegendPlex). In kind it is cell-based, cynomolgus macaques. The protocol: Non-human primate PBMC hyperactivation. Whole blood from cynomolgus macaques was diluted with an equal volume of PBS. A solution of 90% Ficoll-Paque PLUS and 10% RPMI was made, and diluted whole blood was overlayed on top of the diluted Ficoll. Cells were centrifuged at 1000 rcf for 30 minutes at room temperature with no brakes. The buffy coat layer was collected and washed twice with PBS. If red blood cell contamination was present, cells were incubated in ACK lysis buffer for 2 minutes before being washed with PBS to remove lysed red blood cells.
Isolated PBMC were plated at 1×10^6 cells/well and cultured with or without hyperactivating stimuli. After 2 days incubation, cells were assessed for viability, and cell culture supernatant was used to measure cytokine output. Commercially available kits such as Biolegend LegendPlex kits were used as directed by manufacturer's protocol to quantify cytokines of interest.
PBMC were obtained from 13 cynomolgus macaques. Each activation condition was tested in triplicate, and the mean value of the triplicate is graphed for the animal sample. Repeated measures one-way ANOVA was used to test for statistical significance followed by Dunnett's multiple comparisons test.

Another data set relates to human naïve CD4+ T cells. Kind of data set: Mixed lymphocyte reaction: polarization of naïve CD4 T cells (flow cytometry). The data set is classed as cell-based. The protocol: Mixed lymphocyte reaction. Human monocytes were isolated from leukopheresis products using Miltenyi StraightFrom LeukoPak CD14 microbeads as directed by manufacturer. To isolate naïve CD4 T cells, whole blood was diluted with an equal volume of PBS. Diluted blood was layered on top of Ficoll-Paque PLUS solution and spun at 1000 rcf for 20 minutes at room temperature with no brakes. Buffy coat layer was collected, washed, and counted. Miltenyi human naïve CD4 T cell microbead isolation kits were used to isolate cells of interest from the PBMC according to manufacturer's instructions. Collected cells were cryogenically stored in 90% FBS and 10% DMSO.
Monocytes were differentiated into moDC. moDC were counted and plated in U-bottom plates at 2×10^4 cells/well and treated with hyperactivating stimuli or control conditions. After one day of culture, 1×10^5 cells/well naïve CD4 T cells from a different (allogeneic) human donor were thawed and added to the cultures with 100 ng/mL IL-2. Cells were cocultured for 5 days with an IL-2 feed on the third day of coculture. After 5 days, cells were reactivated for four hours using Leukocyte Activation Cocktail with BD GolgiPlug (BD Biosciences). Cells were stained to determine the resulting polarization of activated T cells via flow cytometry. Intracellular staining targets required the use of BD Biosciences Transcription Factor Buffer set to fix and permeabilize cells prior to the intracellular staining step.
Ten moDC donor samples were tested in MLR assay. Staining results were analyzed using FlowJo software, and consistent gating strategies were applied to all samples. Frequency of activated cells was graphed as a percentage of CD4 T cells in each sample. Paired t-tests were used to determine statistical significance.

Data set [2] is described as follows: Solubility of 22:0 Lyso PC (observation). The data set is classed as physicochemical.
Data set [3] has as its system B16-F10 mouse melanoma tumor. The data set can be described thus: Therapeutic whole tumor lysate vaccine in B16F10 tumor-bearing mice. In kind it is in vivo, mouse (C57BL/6J). The protocol: Ex vivo whole tumor lysate preparation. Syngeneic whole tumor lysates (WTL) were prepared from tumors explants of unimmunized tumor-bearing mice. Briefly, tumors from unimmunized mice bearing a tumor 10-12 mm of size were mechanically disaggregated using gentle MACS dissociator (Miltenyi Biotec) and enzymatically digested using the tumor Dissociation Kit (Miltenyi Biotec) following the manufacturer's protocol. After digestion, tumor cell suspensions were washed with PBS and passed through 70 um and then 30 um filters. Single cell suspension was depleted of CD45+ cells using anti-CD45 TILs microbeads (Miltenyi Biotec). Tumor cells were then counted and resuspended at 1×10^7 cells/ml then lysed by 3-4 cycles of freeze-thawing. The lysed cells were further disrupted by repeatedly passing the material through an 18G, then 21G, and finally 25G needles. Lysate was filtered again through 70 um and 30 um cell strainers and stored in aliquots at −80° C. until use. WTL were used for immunotherapy at a concentration equivalent to 5.75E5 tumor cells per mouse.
Immunotherapeutic immunization and tumor challenges. For immunizations in the context of an immunotherapeutic approach, C57BL/6J were injected on the left flank with 5×10^4 B16F10 cells. […] Mice received two boost injections at 7-day intervals.
Quantification and statistical analysis. In in vivo studies, n refers to the number of animals per condition from one or two independent experiments. Statistical differences were calculated by using unpaired two-tailed Student's t test, or one-way ANOVA with Tukey post-test. Dependent samples were analyzed with paired t tests. Statistical significance for experiments with more than two groups was tested with two-way ANOVA with Tukey multiple comparison test correction. All experiments were analyzed using Prism 7 (GraphPad Software). Graphical data was shown as mean values with error bars indicating the SD or SEM. P values of <0.05 (*), <0.01 (**) or <0.001(***);%0.0001 (****) indicated significant differences between groups.

Data set [4] has as its system human monocyte-derived dendritic cells (moDCs). The data set can be described thus: Lipid titration: viability of human moDCs (CellTiter-Glo).
Protocol: Lipid Titration. After 6 days of differentiation into moDC, cells were collected and counted. Cells were replated at 100,000 cells/well in R10 media in 96-well flat bottom tissue culture-treated plates. LPS, serotype 055:B5 (Enzo Life Sciences) was added to a final concentration of 1 μg/mL in each well. After the addition of LPS, lipids were prepared. […] After two days of culture, cell cultures were used for endpoint analyses.
Endpoint Analyses. After culturing moDCs with PAMPs and DAMPs for two days, supernatant and cell samples were collected for analysis. Cells in culture were pelleted by centrifugation at 400×g for 5 min.
Quantification of Cell Viability. Cell viability was assessed by quantifying the presence of ATP as an indicator of metabolically active cells using the CellTiter-Glo Luminescent Cell Viability Assay (Promega). Metabolic activity was assessed following manufacturer's instructions. The CellTiter-Glo reagent was mixed with the cell pellets and remaining supernatant, and transferred to a white, opaque 96-well plate. Luminescence was measured on all wavelengths on a Spectramax iD3 plate reader (Molecular Devices) using an integration time of 500 ms. Percent viability was calculated relative to the control condition of moDCs treated with LPS.
Statistical Analyses. […] For each tested condition, cells from each donor were plated to be tested in triplicate.
[5] abbreviates: 82.5 uM lipid + R848 vs R848 alone, 2 days.
The mark [6] stands for this setting: moDC treated with R848 + 22:0 LPC.
Setting [7] is: WTL 80 ug + R848 100 ug + 65 ug lipid in […]% KP407, 2 boosts every 7 days.

Regarding `CCCCCCCCCCCCCCCCCCCCCC(=O)OC[C@@H](O)COP(=O)([O-])OCC[N+](C)(C)C` [22:0 LYSO PC, 1-behenoyl-2-hydroxy-sn-glycero-3-phosphocholine], the viability at 2 days, 20 μM in data set [1] (Table 1-7, 10 donors) was determined as 120%. In addition, the viability at 2 days, 20 μM in data set [1] (Table 1-8) came to 120%. Moreover, in the data set on non-human primate PBMCs (41.3 uM lipid + R848), the “cytokine fold changes relative to R848 alone (in words)” value is recorded as “not as markedly increased”. Besides, in the data set with non-human primate PBMCs (82.5 uM lipid + R848 1 μg/mL vs R848 alone, 2 days), the “IL-1beta output (in words)” value is on record as “increased the IL-1beta output”. Further, in the data set on non-human primate PBMCs (setting [5]), the “IFN-beta secretion (in words)” value was “increased”, the “IFN-gamma secretion (in words)” value was “significantly increased”, the “IL-8 secretion (in words)” value is on record as “increased” and the “IL-17a secretion (in words)” value was “increased”. The “IL-23 secretion (in words)” value in the data set on non-human primate PBMCs (setting [5]) is “increased”. In the data set on human naïve CD4+ T cells (setting [6]), the “Th2 polarization (Gata3, IL-4) (in words)” value is on record as “minimal Th2 polarization occurred” and the “Th17 cells (RORg, IL-17) (in words)” value is “not detected”. In the data set with human naïve CD4+ T cells (moDC treated with R848 + 22:0 LPC vs R848 alone), the “frequency of polyfunctional Th1 cells (IFN-gamma and TNF-alpha) (in words)” value is “increased in frequency”. Besides, in the data set with human naïve CD4+ T cells (moDC treated with R848 + 22:0 LPC vs R848 alone, 5 days coculture), the “frequency of Th1 cells (in words)” value is given as “increased the frequency of Th1 cells”. For the same compound, the “solubility in aqueous solution (in words)” value in data set [2] was “mostly insoluble in aqueous solution”. In data set [2] (ethanol or methanol), the “solubility in alcohols (in words)” value was “soluble in ethanol or methanol”. In data set [3] (setting [7]), the “survival of tumor-bearing mice (in words)” value was “survived longer” and the “tumor growth kinetics (in words)” value is “delayed tumor growth kinetics”. The “benefit of vaccination (in words)” value in data set [3] (tumor lysate + R848 + lipid in PBS) is “No significant benefit”. In addition, the “moDC viability (in words)” value in data set [4] (10.3 μM lipid + LPS) was “retained high viability”. In addition, the “Relative Viability (%) ± SD” value in data set [4] (10.3 μM lipid + LPS 1 μg/mL, 2 days, relative to LPS-treated moDCs, Table 1-5) worked out at 89.1%. The “moDC viability (in words)” value in data set [4] (20.6 μM lipid + LPS) is on record as “reduced cell viability somewhat”.
